In PubChem BioAssay AID1963986 (Molecular Pharmacology Branch, DTP, NCI, 2024):

Tested on: 171881-019-R-J1-PDC tumor spheroid viability
Assay: Anticancer human tumor 171881-019-R-J1-PDC patient-derived invasive breast carcinoma cell line growth inhibition [PI3K]
Conditions: spheroids with HUVEC and MSC; for viability, T/C: stronger effect = lower value
Method in brief: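 Targeted small molecules plus PI3K inhibitors, half-log dose series from Cmax (default top 10 microM), were applied to heterotypic spheroids of cancer cells with HUVEC and MSCs. Viability indicated growth inhibition.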

[1] = curve of first compound, second compound 0.00316 µM
[2] = curve of first compound, second compound 0.01 µM
[3] = curve of first compound, second compound 0.0316 µM
[4] = curve of first compound, second compound 0.1 µM
[5] = curve of first compound, second compound 0.316 µM
[6] = curve of first compound, second compound 1 µM
[7] = second compound 0.00316 µM, first compound 0.0316 µM
[8] = second compound 0.00316 µM, first compound 0.1 µM
[9] = second compound 0.00316 µM, first compound 0.316 µM
[10] = second compound 0.00316 µM, first compound 1 µM
[11] = second compound 0.00316 µM, first compound 3.16 µM
[12] = second compound 0.00316 µM, first compound 10 µM
[13] = second compound 0.01 µM, first compound 0.0316 µM
[14] = second compound 0.01 µM, first compound 0.1 µM
[15] = second compound 0.01 µM, first compound 0.316 µM
[16] = second compound 0.01 µM, first compound 1 µM
[17] = second compound 0.01 µM, first compound 3.16 µM
[18] = second compound 0.01 µM, first compound 10 µM
[19] = second compound 0.0316 µM, first compound 0.0316 µM
[20] = second compound 0.0316 µM, first compound 0.1 µM
[21] = second compound 0.0316 µM, first compound 0.316 µM
[22] = second compound 0.0316 µM, first compound 1 µM
[23] = second compound 0.0316 µM, first compound 3.16 µM
[24] = second compound 0.0316 µM, first compound 10 µM
[25] = second compound 0.1 µM, first compound 0.0316 µM
[26] = second compound 0.1 µM, first compound 0.1 µM
[27] = second compound 0.1 µM, first compound 0.316 µM
[28] = second compound 0.1 µM, first compound 1 µM
[29] = second compound 0.1 µM, first compound 3.16 µM
[30] = second compound 0.1 µM, first compound 10 µM
[31] = second compound 0.316 µM, first compound 0.0316 µM
[32] = second compound 0.316 µM, first compound 0.1 µM
[33] = second compound 0.316 µM, first compound 0.316 µM
[34] = second compound 0.316 µM, first compound 1 µM
[35] = second compound 0.316 µM, first compound 3.16 µM
[36] = second compound 0.316 µM, first compound 10 µM
[37] = second compound 1 µM, first compound 0.0316 µM
[38] = second compound 1 µM, first compound 0.1 µM
[39] = second compound 1 µM, first compound 0.316 µM
[40] = second compound 1 µM, first compound 1 µM
[41] = second compound 1 µM, first compound 3.16 µM
[42] = second compound 1 µM, first compound 10 µM
[43] = curve of first compound, second compound 3.16 µM
[44] = curve of first compound, second compound 10 µM
[45] = second compound 3.16 µM, first compound 0.0316 µM
[46] = second compound 3.16 µM, first compound 0.1 µM
[47] = second compound 3.16 µM, first compound 0.316 µM
[48] = second compound 3.16 µM, first compound 1 µM
[49] = second compound 3.16 µM, first compound 3.16 µM
[50] = second compound 3.16 µM, first compound 10 µM
[51] = second compound 10 µM, first compound 0.0316 µM
[52] = second compound 10 µM, first compound 0.1 µM
[53] = second compound 10 µM, first compound 0.316 µM
[54] = second compound 10 µM, first compound 1 µM
[55] = second compound 10 µM, first compound 3.16 µM
[56] = second compound 10 µM, first compound 10 µM
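Further: spheroids exposed to compound for 7 days before viability read.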
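Wherever viability, T/C is given: 100% = DMSO vehicle-treated spheroids.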

`Cn1ncc(Cl)c1-c1cc(C(=O)NC(CN)Cc2cccc(F)c2)sc1Cl` (stereo not given) + CC(Nc1ccc2c(c1)OCCn1cc(N3C(=O)OCC3C(F)F)nc1-2)C(N)=O showed an IC50 [1] of 149 nM, an IC50 [2] of 134 nM and an IC50 [3] of 54.2 nM. It also gave an IC50 [4] of less than 31.6 nM, an IC50 [5] of less than 31.6 nM and an IC50 [6] of less than 31.6 nM. It also gave a viability, T/C [7] of 70%, a viability, T/C [8] of 59.1% and a viability, T/C [9] of 34.8%. It also gave a viability, T/C [10] of 21.2%, a viability, T/C [11] of 12.9% and a viability, T/C [12] of 4.9%. It also gave a viability, T/C [13] of 64.1%, a viability, T/C [14] of 58.1% and a viability, T/C [15] of 31.4%. The viability, T/C [16] was 17.3%, the viability, T/C [17] was 12.5% and the viability, T/C [18] was 4.16%. It also gave a viability, T/C [19] of 53.6%, a viability, T/C [20] of 46.4% and a viability, T/C [21] of 29.3%. For the same compound, the viability, T/C [22] was 15.6%, the viability, T/C [23] was 11.4% and the viability, T/C [24] was 4.17%. For the same compound, the viability, T/C [25] was 40.4%, the viability, T/C [26] was 33.5% and the viability, T/C [27] was 24.6%. It also gave a viability, T/C [28] of 15.1%, a viability, T/C [29] of 10.2% and a viability, T/C [30] of 4.94%. For the same compound, the viability, T/C [31] was 27.2%, the viability, T/C [32] was 26.3% and the viability, T/C [33] was 18.1%. It also gave a viability, T/C [34] of 14.6%, a viability, T/C [35] of 9.75% and a viability, T/C [36] of 4.08%. For the same compound, the viability, T/C [37] was 20.2%, the viability, T/C [38] was 18.1% and the viability, T/C [39] was 16.4%. For the same compound, the viability, T/C [40] was 12.9%, the viability, T/C [41] was 8.94% and the viability, T/C [42] was 3.85%.
Work on `C#Cc1c(F)ccc2cc(O)cc(-c3ncc4c(N5CC6CCC(C5)N6)nc(OCC56CCCN5CC(F)C6)nc4c3F)c12` (stereo not given) + COc1c(OCCCN2CCOCC2)ccc2c3n(c(=NC(=O)c4cnc(N)nc4)nc12)CCN3 yielded an IC50 [1] of 61.3 nM, an IC50 [2] of less than 31.6 nM and an IC50 [3] of less than 31.6 nM. The IC50 [4] was less than 31.6 nM, the IC50 [5] was less than 31.6 nM and the IC50 [6] was less than 31.6 nM. The viability, T/C [7] was 53.6%, the viability, T/C [8] was 48.2% and the viability, T/C [9] was 30%. The viability, T/C [10] was 20.7%, the viability, T/C [11] was 15.8% and the viability, T/C [12] was 12.8%. The viability, T/C [13] was 38.2%, the viability, T/C [14] was 31.8% and the viability, T/C [15] was 20.4%. For the same compound, the viability, T/C [16] was 15.1%, the viability, T/C [17] was 10.3% and the viability, T/C [18] was 9.69%. The viability, T/C [19] was 18.9%, the viability, T/C [20] was 14.8% and the viability, T/C [21] was 10%. It also gave a viability, T/C [22] of 6.62%, a viability, T/C [23] of 5.52% and a viability, T/C [24] of 4.3%. For the same compound, the viability, T/C [25] was 6.23%, the viability, T/C [26] was 4.84% and the viability, T/C [27] was 3.8%. The viability, T/C [28] was 3.03%, the viability, T/C [29] was 2.87% and the viability, T/C [30] was 1.74%. For the same compound, the viability, T/C [31] was 1.68%, the viability, T/C [32] was 1.75% and the viability, T/C [33] was 1.34%. The viability, T/C [34] was 1.08%, the viability, T/C [35] was 0.99% and the viability, T/C [36] was 0.17%. The viability, T/C [37] was 0.8%, the viability, T/C [38] was 0.83% and the viability, T/C [39] was 0.78%. It also gave a viability, T/C [40] of 0.83%, a viability, T/C [41] of 0.68% and a viability, T/C [42] of 0.29%.
`CC(=O)c1c(C)c2cnc(Nc3ccc(N4CCNCC4)cn3)nc2n(C2CCCC2)c1=O` was tested, and the viability, T/C (compound 0.000316 µM) was 91.8% [middle of 4 runs], the viability, T/C (compound 0.001 µM) was 85.3% [middle of 4 runs] and the viability, T/C (compound 0.00316 µM) was 97% [middle of 4 runs]. The viability, T/C (compound 0.01 µM) was 99.2% [middle of 4 runs], the viability, T/C (compound 0.0316 µM) was 108% [middle of 4 runs] and the viability, T/C (compound 0.1 µM) was 88.7% [middle of 4 runs]. It also gave an IC50 (curve of compound) greater than 100 nM.
For `CC(C)NCC(C(=O)N1CCN(c2ncnc3c2C(C)CC3O)CC1)c1ccc(Cl)cc1` (stereo not given) + Cc1nc(NC(=O)N2CCCC2C(N)=O)sc1-c1ccnc(C(C)(C)C(F)(F)F)c1, the IC50 [3] was 276 nM, the IC50 [4] was 262 nM and the IC50 [5] was 72.8 nM. The IC50 [6] was less than 31.6 nM, the IC50 [43] was less than 31.6 nM and the IC50 [44] was less than 31.6 nM. For the same compound, the viability, T/C [19] was 97.9%, the viability, T/C [20] was 68.3% and the viability, T/C [21] was 50.1%. For the same compound, the viability, T/C [22] was 28.4%, the viability, T/C [23] was 16.7% and the viability, T/C [24] was 9.99%. For the same compound, the viability, T/C [25] was 81.6%, the viability, T/C [26] was 64.3% and the viability, T/C [27] was 49.5%. For the same compound, the viability, T/C [28] was 25.9%, the viability, T/C [29] was 13.6% and the viability, T/C [30] was 8.89%. For the same compound, the viability, T/C [31] was 55.5%, the viability, T/C [32] was 46.7% and the viability, T/C [33] was 38%. For the same compound, the viability, T/C [34] was 23.2%, the viability, T/C [35] was 12.6% and the viability, T/C [36] was 8.17%. For the same compound, the viability, T/C [37] was 32%, the viability, T/C [38] was 31% and the viability, T/C [39] was 28.6%. It also gave a viability, T/C [40] of 16.1%, a viability, T/C [41] of 8.99% and a viability, T/C [42] of 7.16%. For the same compound, the viability, T/C [45] was 14.6%, the viability, T/C [46] was 14.8% and the viability, T/C [47] was 12.4%. It also gave a viability, T/C [48] of 8.95%, a viability, T/C [49] of 6.94% and a viability, T/C [50] of 4.98%. For the same compound, the viability, T/C [51] was 3.06%, the viability, T/C [52] was 3.52% and the viability, T/C [53] was 3.3%. It also gave a viability, T/C [54] of 3.85%, a viability, T/C [55] of 2.77% and a viability, T/C [56] of 1.56%.
For `CCCS(=O)(=O)Nc1ccc(F)c(C(=O)c2c[nH]c3ncc(-c4ccc(Cl)cc4)cc23)c1F` + CC(Nc1ncnc2nc[nH]c12)c1cc2cccc(Cl)c2c(=O)n1-c1ccccc1, the IC50 [3] was 5730 nM, the IC50 [4] was 5450 nM and the IC50 [5] was 5380 nM. It also gave an IC50 [6] of 6000 nM, an IC50 [43] of 6060 nM and an IC50 [44] of 4950 nM. The viability, T/C [19] was 90.8%, the viability, T/C [20] was 87.2% and the viability, T/C [21] was 97.2%. The viability, T/C [22] was 84.1%, the viability, T/C [23] was 92.3% and the viability, T/C [24] was 12.2%. For the same compound, the viability, T/C [25] was 98.7%, the viability, T/C [26] was 81.3% and the viability, T/C [27] was 95%. The viability, T/C [28] was 91.4%, the viability, T/C [29] was 83.3% and the viability, T/C [30] was 12.8%. It also gave a viability, T/C [31] of 87.4%, a viability, T/C [32] of 89.1% and a viability, T/C [33] of 103%. It also gave a viability, T/C [34] of 101%, a viability, T/C [35] of 83.2% and a viability, T/C [36] of 11.3%. For the same compound, the viability, T/C [37] was 95.1%, the viability, T/C [38] was 107% and the viability, T/C [39] was 106%. The viability, T/C [40] was 105%, the viability, T/C [41] was 97.7% and the viability, T/C [42] was 11.9%. It also gave a viability, T/C [45] of 90.9%, a viability, T/C [46] of 97% and a viability, T/C [47] of 104%. For the same compound, the viability, T/C [48] was 121%, the viability, T/C [49] was 103% and the viability, T/C [50] was 9.5%. It also gave a viability, T/C [51] of 67.8%, a viability, T/C [52] of 70.7% and a viability, T/C [53] of 77.2%. It also gave a viability, T/C [54] of 90.8%, a viability, T/C [55] of 82.2% and a viability, T/C [56] of 6.77%.
